From patent US20130115256A1, “METHODS FOR TREATING OR PREVENTING VASCULAR GRAFT FAILURE” (priority 2010, published 2013)

What was measured:
P38MAPK = assay: p38 MAPK radiometric kinase assay; type: biochemical; settings: MMI-0100 100 μM; remaining kinase activity
Excerpt: (§1) A commercial radiometric assay service was used to test the specificity and potency of MMI-0100 ([…]; SEQ ID NO: 1) by measuring its half maximal inhibitory concentrations (IC50). This quantitative assay measures how much MK2 inhibitor (MMI-0100; […] (SEQ ID NO: 1)) is needed to inhibit 50% of a given biological process or component of a process (i.e., an enzyme, cell, or cell receptor). Specifically, in these assays, a positively charged substrate is phosphorylated with a radiolabeled phosphate group from an ATP if the kinase is not inhibited by an inhibitor peptide. The positively charged substrate then is attracted to a negatively charged filter membrane, quantified with a scintillation counter, and compared to a 100% activity control. […]
For the p38 MAPK (p38 Mitogen-Activated Protein Kinase) radiometric assay, 5-10 mU of p38 MAPK was incubated with 25 mM Tris pH 7.5, 0.02 mM EGTA, 0.33 mg/mL myelin basic protein (a substrath for p38 MAPK), 10 mM MgAcetate, and 10 μM of [y-^33P-ATP] in the final reaction volume of 25 μl. […] The washed P30 filtermat was dried and its radioactivity was measured by scintillation counter.
(§2) IC50 values for inhibitor peptides were determined using Millipore's IC50 Profiler Express service. […]

JNK = JNK radiometric kinase assay; type: biochemical; settings: MMI-0100 100 μM; remaining kinase activity
Excerpt: as §1, with “control. ATP concentrations within 15 μM of the apparent Km for ATP were chosen since an ATP concentration near the Km may allow for the kinases to have the same relative amount of phosphorylation activity.” for “control.”
For the JNK (c-Jun N-terminal Kinase) radiometric assay, 5-10 mU of JNK was incubated with 50 mM Tris pH 7.5, 0.1 mM EGTA, 0.1% b-mercaptoethanol, 3 μM ATF2 (a substrate for JNK), 10 mM MgAcetate, and 10 μM of [y-^33P-ATP] in the final reaction volume of 25 μl. […] The washed P30 filtermat was dried and its radioactivity was measured by scintillation counter.
as §2

[1] = Toxicity observation (test not specified)
[2] = system: mouse vein graft (intrathoracic inferior vena cava); assay: Mouse vein graft model; type: in vivo
Experimental: 12-week-old C57BL/6 wild type mice (Harlan) were used for all experiments, as previously described (Muto, A. et al., J. Exp. Med., 2011, 208(3): 561-575, incorporated herein by reference in its entirety). […] Prior to implantation, the vein was treated ex vivo with 100 μM of MMI-0100 ([…] (SEQ ID NO: 1)) peptide solution, or control PBS solution, for 20 minutes at room temperature.
To implant the vein graft, a midline incision was made in the abdomen of a recipient mouse and the infrarenal abdominal aorta was exposed. The abdominal aorta was temporarily occluded with atraumatic micro-clamps and a segment corresponding to the length of the vein graft was excised. The vein was sutured into the arterial circulation using 10-0 nylon in continuous fashion.
Vein grafts were followed postoperatively using the Vevo770® High-Resolution Imaging System (VisualSonics, Toronto, Canada), with weekly measurements of graft wall thickness. At 28 days after surgery, mice were sacrificed to allow explantation of the vein graft. Tissue was either frozen with RNA stabilization reagent (Qiagen) or explanted for paraffin embedding after circulatory flushing with ice-cold PBS followed by 4% paraformaldehyde perfusion-fixation. Vein graft wall thickness, lumen diameter, and outer wall diameter (elastic lamina) were measured in elastin-stained sections using computer morphometry (ImageJ).
Vein graft samples were fixed as described above and harvested for histology. Specimens were embedded in paraffin and cut in cross section (5 μm). Hematoxylin & Eosin, Masson trichrome, and van Gieson elastin staining were performed for all samples. Cells were cultured on gelatin-coated cover slips and fixed with methanol.
All sections were treated for antigen retrieval using 10 mmol/L citrate buffer (pH 6.0) prior to boiling or proteinase K (20 μg/ml) treatment, at room temperature, for 10-15 minutes. Immunohistochemical detection was performed using DAB as well as NovaRED® substrate (Vector). Sections were counterstained with Mayer's Hematoxylin.
The efficacy of MMI-0100 ([…]; SEQ ID NO: 1) in treating intimal hyperplasia in vivo was examined using a mouse model of vein bypass graft. […] The IVC was soaked in a 100 μM solution of MMI-0100 ([…]; SEQ ID NO: 1) at room temperature for 20 minutes prior to implantation into a host (C57BL/6J) mouse to bypass the infrarenal aorta. Five treated and six untreated veins were transplanted for a total of 11 transplanted animals. Vein graft wall thickness was determined using a Vevo7700 ultrasound imaging system at each week. […]

For YARAAARQARAKALARQLGVAA [MMI-0100], the “Percent Activity, P38MAPK” value (P38MAPK) was 60%, the “Percent Activity, JNK” value (JNK) was 92% and the “evidence of toxicity, tissue erosion, or necrosis” value [1] was “did not show any evidence”. The “reduced wall thickness compared to control grafts, histological staining” value ([2]; 100 μM ex vivo 20 minutes, 4 weeks) was 72%, the “F4/80-positive cells infiltrating into vein grafts” value ([2]; 100 μM ex vivo 20 minutes, 4 weeks, immunohistochemistry) was “fewer” and the “vein graft wall thickness ratio by ultrasound” value ([2]; follow-up study, 100 μM ex vivo 20 minutes, 4 weeks (control grafts 4.7-fold)) was 2.6 fold. For the same sequence, the “grafted vessel wall thickness relative to the originally harvested IVC” value ([2]; vein soaked ex vivo in 100 μM for 20 minutes, 4 weeks after graft, ultrasound (control almost five times)) was “about 2.5 times”.
